Patent US20130231377A1, “PACTAMYCIN ANALOGS AND METHODS OF USE” (State of Oregon acting by and through the state Board of …, priority 2010, published 2013)

Legend:
[1] = system: chloroquine-resistant and MDR clone Dd2 of P. falciparum; assay: Antimalarial activity assay, SYBR Green I fluorescence-based method; assay type: cell-based, Plasmodium falciparum
Description: (§1) An antimalarial activity assay was carried out at the Oregon Translational Research and Drug Development Institute (OTRADI). Two strains of P. falciparum were used. The chloroquine-sensitive clone D6, and chloroquine-resistant and MDR clone Dd2 was obtained from the Malaria Research and Reference Reagent Resource Center (MR4) (Manassas, Va.). The parasites were cultured according to the method of Trager and Jensen (Trager and Jensen, Science, 1976, 193:673-675), with minor modifications. The cultures were maintained in human erythrocytes (Lampire Biological Laboratories, Pipersville, Pa.), suspended at 2% hematocrit in RPMI 1640 (Sigma) containing 0.5% Albumax (Invitrogen), […] hypoxanthine (Lancaster), and 50 μg/L gentamicin (Invitrogen), and incubated at 37° C. under a gas mixture of 5% O2, 5% CO2, and 90% N2. In vitro antimalarial activity was determined by a SYBR Green I fluorescence-based method described previously by Smilkstein et al. (Smilkstein et al., Antimicrob. Agents Chemother., 2004, 48:1803-1806). Frozen stock solutions of each test drug (1 mM in DMSO) were thawed, warmed to 37° C., and mixed thoroughly prior to use. Drug solutions were serially diluted with culture medium, and distributed to asynchronous parasite cultures on 96-well plates in quadruplicate in a total volume of 100 μL to achieve 0.2% parasitemia with a 2% hematocrit in a total volume of 100 μL. Automated pipeting and dilution was carried using programmable Precision XS (Bio-Tek, Winooski, Vt.) and Sciclone ALH3000 (Caliper, Hopkinton, Mass.) robotic stations. The plates then were incubated for 72 hours at temperature and gas conditions described above. After incubation, 100 μL of lysis buffer with SYBR Green I was added to each well. The plates were incubated at room temperature for 1 h and then placed in a 96-well fluorescence plate reader (Synergy4, BioTek, Winooski, Vt.) with excitation and emission wavelength at 485 nm and 528 nm, respectively, for measurement of fluorescence. The 50% inhibitory concentration (IC50) was determined by non-linear regression analysis of logistic dose-response curves (GraphPad Prism software).

[2] = system: chloroquine-sensitive clone D6 of P. falciparum; assay: as above; assay type: cell-based, Plasmodium falciparum; conditions: Plasmodium falciparum
Description: as §1

Mycobacterium smegmatis = assay: Antibacterial agar diffusion assay (Example 2); assay type: cell-based
Description: (§2) Antibacterial activity of pactamycin and its analogues was determined by an agar diffusion assay. E. coli, Pseudomonas aeruginosa, Mycobacterium smegmatis, and Staphylococcus aureus were streaked on nutrient agar (Difco) and grown overnight at 37° C. Colonies were transferred to nutrient broth and incubated at 37° C. for 24 hours. Turbidity of the inoculum was measured to a proper density at 600 nm (BioRad, SmartSpec 3000). For plate preparation, inoculum (500 μL) was mixed thoroughly with warm nutrient agar (50 mL) and poured to 25 mL square plates. The agar plates were allowed to solidify and dry for 30 minutes before assay. Sterile blank paper disks (Becton-Dickinson) were impregnated with pactamycin and its analogues (20 μL) at various concentrations and dried at room temperature. The disks were placed onto inoculated agar plates and incubated at 37° C. for 24 hours. In order to produce a contrast background of the inhibition zone, 0.25% MTT developing dye (1 mL) was added over the plates.

Pseudomonas aeruginosa [3] = assay: Antibacterial agar diffusion assay (Example 2); assay type: cell-based
Description: as §2

Staphylococcus aureus [4] = assay: Antibacterial agar diffusion assay (Example 2); assay type: cell-based
Description: as §2

E. coli = assay: Antibacterial agar diffusion assay (Example 2); assay type: cell-based, Escherichia coli
Description: as §2

[5] = system: Gram-positive and Gram-negative bacteria (S. aureus, M. smegmatis, P. aeruginosa, E. coli); assay: Antibacterial dose-response studies, broth microdilution (Example 2); assay type: cell-based; conditions: 0.01 (or 0.1)-100 μM
Description: Dose response assays were performed at a 100-μL volume in 200 μL Eppendorf tubes. The compounds were diluted and added to the bacterial suspension at final concentrations of 0.01 (or 0.1)-100 μM. After incubation at 37° C. for 24 hours, turbidity of cultures was measured at 600 nm (Biorad, SmartSpec 3000). Each assay was done in triplicate.
To further evaluate and compare the in vitro efficacy of de-6MSA-pactamycin with that of pactamycin, dose-response studies were done using a broth microdilution method with 0.01 (or 0.1)-100 μM concentrations of pactamycin and de-6MSA-pactamycin (FIGS. 16A-16D). […] Both pactamycin and de-6MSA-pactamycin were maximally active between 1 and 10 μM and effective against both Gram-positive and Gram-negative bacteria.

[6] = system: human colon cancer HT-29 cells; assay: MTT cell viability assay in HT-29 cells; assay type: cell-based
Description: The MTT assay was carried out as described by Mosmann (J. Immunol. Methods, 1983, 65:55). Briefly, human colon cancer HT-29 cells (ATCC) were seeded in 96-well plates at a density of 1.0×10^4 cells per well. The growth medium consisted of phenol red-free RPMI 1640 (Invitrogen, Carlsbad, Calif.) containing 10% fetal bovine serum (Invitrogen, Carlsbad, Calif.), glutamine (2 mM), penicillin (100 units/mL) and streptomycin (100 μg/mL). After a 24-hour incubation at 37° C. in a humidified atmosphere of 5% CO2, the medium was removed and replaced with fresh RPMI 1640 medium (with or without 10% FBS and no penicillin or streptomycin). Increasing concentrations of pactamycin, pactamycate, de-6MSA pactamycin, or de-6MSA-pactamycate dissolved in DMSO were added to cells at a volume of 0.2 mL/well. DMSO was added to control media not to exceed a final concentration of 1%. Following a 24-hour incubation, the medium was aspirated from each well and replaced with fresh RPMI medium with 10% FBS and MTT (0.5 mg/mL). […] The plate was shaken for 10 minutes before reading the absorbance at 570 nm using a microplate reader (SpectraMax 250, Molecular Devices, Sunnyvale, Calif., USA). The viability of treated cells was expressed as the percentage of control cells. […]

[7] = system: HT-29 human colon carcinoma cells; assay: SRB growth inhibition assay in HT-29 cells; assay type: cell-based; conditions: HT-29 cells, 24 hours
Description: Growth inhibition of HT-29 cells induced by the test compounds was also evaluated by the SRB assay, which is based on measuring total biomass by staining the cellular proteins with sulforhodamine B (Skehan et al., J. Natl. Cancer Inst., 1990, 82:1107). After treating the HT-29 cells with the compounds for 24 hours, the adherent cells grown in 96-well plates were fixed with 10% trichloroacetic acid and incubated for 1 hour at 4° C. The plates were washed five times with tap water, dried, and stained with SRB solution (0.4% wt/vol in 1% acetic acid) for 30 minutes at room temperature. The plates were again washed and dried before adding 10 mM Tris base to solubilize the bound stain. Optical densities (OD) were read at 564 nm in SpectraMax 250 and cell growth of treated cells was expressed as the percentage of control cells, ODtest/ODcontrol×100%.

Bacillus subtilis = assay: Antibacterial micro-dilution assay (Example 1); assay type: cell-based; conditions: 24 hours, read-out: IC50 against Bacillus subtilis
Description: (§3) The antibacterial activity of pactamycin and its analogs was determined by agar diffusion and micro-dilution assays. E. coli, P. aeruginosa, B. subtilis or M. smegmatis, and S. aureus were streaked on nutrient agar (Difco or Beckton-Dickinson) and grown overnight at 37° C. Colonies were transferred to nutrient broth and incubated at 37° C. for 24 hours. Turbidity of the inoculum was measured to a proper density at 600 nm (BioRad, SmartSpec 3000). For plate preparation, inoculum (500 μL) was mixed thoroughly with warm nutrient agar (50 mL) and poured to 25 mL square plates. The agar plates were allowed to solidify and dry for 30 min before assay. Sterile blank paper disks (Becton-Dickinson) were impregnated with pactamycin and its analogs (20 μL) at various concentrations and dried at room temperature. The disks were placed onto inoculated agar plates and incubated at 37° C. for 24 hours. In order to produce a contrast background of the inhibition zone, 0.25% MTT developing dye (1 mL) was added over the plates.
(§4) Micro-dilution assays were performed in 96-well plates. The compounds were serially diluted and added to the bacterial suspension at final concentrations of 1 mM-10 nM, or 0.5 mM-10 nM. After incubation at 37° C. for 24 hours, 0.25% MTT developing dye (50 μL) was added. Each assay was done in triplicate.

Escherichia coli = assay: Antibacterial micro-dilution assay (Example 1); assay type: cell-based; conditions: 24 hours, read-out: IC50 against Escherichia coli
Description: as §3, §4

Pseudomonas aeruginosa [8] = assay: Antibacterial micro-dilution assay (Example 1); assay type: cell-based; conditions: 24 hours, read-out: IC50 against Pseudomonas aeruginosa
Description: as §3, §4

Staphylococcus aureus [9] = assay: Antibacterial micro-dilution assay (Example 1); assay type: cell-based; conditions: 24 hours, read-out: IC50 against Staphylococcus aureus
Description: as §3, §4

[10] = system: Gram-positive and Gram-negative bacteria; assay: Antibacterial agar diffusion and micro-dilution assays, all tested strains (Example 1); assay type: cell-based, S. aureus, B. subtilis, P. aeruginosa, E. coli; conditions: at the concentrations used
Description: as §3, §4

[11] = Cytotoxicity assay (WST-8) against HCT116 cells; assay type: cell-based; conditions: human, HCT116 colorectal carcinoma cells, estimated
Description: HCT116 (colorectal carcinoma) cells were seeded onto a 96-well plate at 10,000 cells per well. Cells were treated with either 5, 50, 500 or 5000 nM TM-025, TM-026, N-acetyl-glucosaminyl-3-aminoacetophenone or 5, 25, 50, 100 nM pactamycin in triplicate for 48 hours. For the narrow range concentration assays, cells were treated with either 0.5, 1, 2 or 4 μM TM-025; 1, 2, 3 or 5 μM TM-026; 0.5, 2, 5 or 7 μM N-acetylglucosaminyl-3-aminoacetophenone or 12.5, 25, 50, 100 nM pactamycin in triplicate for 24 or 48 hours. WST-8 [2-(2-methoxy-4-nitrophenyl)-3-[…], monosodium salt] (Dojindo, Rockville, Md.) was added to each well to give an orange-colored formazan product, which is soluble in tissue culture medium. Absorbance was measured at 450 nm. Percent of viable cells was calculated relative to the “No Treatment” and “Solvent Only” wells.

Compound	EC50 ([1]; Plasmodium falciparum, Example 2, FIG. 14, multi-drug resistant Dd2, read-out: EC50 against the Dd2 strain) [nM]	times more effective than chloroquine against Dd2 ([1]; relative to chloroquine) [times]	EC50 ([2]; D6, Example 2, FIG. 14, read-out: EC50 against the D6 strain) [nM]	antibacterial activity, growth of Mycobacterium smegmatis (Mycobacterium smegmatis)	antibacterial activity, growth of Pseudomonas aeruginosa (Pseudomonas aeruginosa [3])	antibacterial activity, growth of Staphylococcus aureus (Staphylococcus aureus [4])	antibacterial activity, growth of E. coli (E. coli)	biological activity compared with pactamycin in dose-response studies [5]	cytotoxicity profile (MTT-based assay) [6]	cytotoxicity profile (SRB-based assay) [7]	IC50 ([1]; Plasmodium falciparum, DD2, 72 h, P. falciparum Dd2, 72 hours, read-out: Antimalarial IC50 (Dd2)) [nM]	IC90 ([1]; Plasmodium falciparum, DD2, 72 h, P. falciparum Dd2, 72 hours, read-out: Antimalarial IC90 (Dd2)) [nM]	IC50 ([2]; D6, 72 h, P. falciparum D6, 72 hours, read-out: Antimalarial IC50 (D6)) [nM]	IC90 ([2]; D6, 72 h, P. falciparum D6, 72 hours, read-out: Antimalarial IC90 (D6)) [nM]	IC50 (Bacillus subtilis) [nM]	IC50 (Escherichia coli) [nM]	IC50 (Pseudomonas aeruginosa [8]) [nM]	IC50 (Staphylococcus aureus [9]) [nM]	antibacterial activity in agar diffusion and micro-dilution assays (in words) [10]	IC50 [11] [nM]
CC(=O)c1cccc(N[C@H]2[C@H](N)[C@@](NC(=O)N(C)C)([C@H](C)O)[C@@](C)(O)[C@@]2(O)CO)c1 [de-6MSA-pactamycin]	9	10	7	inhibited the growth	inhibited the growth	inhibited the growth	inhibited the growth	equivalent biological activity with the parent molecule	equivalent cytotoxicity profiles with the respective parent compounds	equivalent cytotoxicity profiles with the respective parent compounds										
CC(=O)c1cccc(N[C@H]2[C@H](N)[C@@](NC(=O)N(C)C)([C@H](C)O)[C@@](C)(O)[C@@]2(O)COC(=O)c2c(C)cccc2O)c1 [pactamycin]				inhibited the growth	inhibited the growth	inhibited the growth	inhibited the growth				~21	187	~24	124	~500000	~100000	~500000	~10000	strong antibacterial activity	~100
